Laboratory results reported in patent publication US9695463B2, “DNA 5-methyl cytosine demethylation activity of vertebrate DNA methyltransferases” (Academia Sinica, priority 2012, dated 2017).

How the values were obtained:
[1] = biological target: T1, recombinant DNMT3B (Mus musculus, UniProt O88509); experiment: Effect of Ca2+ and DTT on the C to 5-mC methylation reaction of recombinant DNMT3B (hydrolysis-TLC assay); type: biochemical; settings: 40 nM recombinant DNMT3B, unmethylated pMR1-8, 160 μM SAM, 1 mM CaCl2 or 5 mM DTT, 37°C, 4 h
T1 construct: purchased BPS Bioscience; host or cells: recombinant baculovirus-infected Sf9 insect cells
Method: (§1) FIGS. 3A-B show the effects of a reducing condition and SAM on the DNA demethylation and methylation activities of DNMT3B. […] After incubation at 37° C. for 4 h, the DNA products were analyzed by the hydrolysis-TLC assay. The results are quantitatively presented in the histogram. […] After incubation at 37° C. for 4 h, the extents of C methylation of the DNAs from the different reactions were determined by hydrolysis-TLC assay and quantitatively compared in the histogram. Error bars indicate S.D.
Methylation in vitro of unmodified pMR1-8 plasmid DNA by the DNMTs were carried out and analyzed by the hydrolysis-TLC assay. When needed, 1 mM CaCl2 or 5 mM DTT was also included in the reaction mixture.

[2] = tested on: DNA demethylation activity of porcine sperm nuclear extract; experiment: In vitro DNA demethylation by porcine sperm nuclear extract (restriction digestion-PCR assay); type: biochemical; settings: for effect on the in vitro DNA demethylation activity of the sperm nuclear extract: 10 mM CaCl2, increasing concentrations of inhibitor (APE-i to 1 mM, 3-AB to 50 mM, THU to 1 mM)
Method: The nuclear extracts were prepared from the porcine sperms and 293T cells, respectively, by a modified method. Briefly, the porcine semen was washed three times by PBS buffer and the sperm pellet isolated with FICOLL®. The pellet was resuspended in a hypotonic buffer (10 mM Tris-HCl, pH7.4, 10 mM NaCl, 10 mM EDTA and EDTA-free protease inhibitors) on ice for 15 minutes. The resuspended sperms were passed through a G21 needle 10 times and then centrifuged at 13,200 rpm at 4° C. for 10 min. The supernatant was removed and the pellet of the nuclei was resuspended in a resuspension buffer (10 mM Tris-HCl, pH7.4, 10 mM NaCl, 1.5 mM, MgCl2 and EDTA-free protease inhibitors), and an equal volume of 1M NaCl was added for 30 min incubation on ice.

[3] = biological target: T2, recombinant mouse DNMT3B (Mus musculus, UniProt O88509); experiment: Effect of Ca2+, DTT, SAM and H2O2 on the DNA demethylation activity of recombinant DNMT3B (hydrolysis-TLC assay); type: biochemical
T2 construct: purchased BPS Bioscience; host or cells: recombinant baculovirus-infected Sf9 insect cells
Method: M, mock control without incubation.
as §1
Rx, reactions. […] M, mock control without incubation.

[4] = tested on: 5-mC-containing double-stranded DNA substrate; experiment: 5-mC to C conversion by 293T nuclear extracts with exogenously expressed mouse DNMTs (hydrolysis-TLC assay); type: biochemical; settings: 293T nuclear extract with exogenously expressed mouse enzyme, buffer B, 10 mM Ca2+
[5] = tested on: 5-mC-containing DNA substrate; experiment: 5-mC to C conversion by recombinant DNMTs (hydrolysis-TLC assay); settings: 40 nM recombinant DNMT3B, 1 mM CaCl2, 37°C, 2 h (reaction 1)

O[C@H](CS)[C@H](O)CS (racemic) [DTT, dithiothreitol]
effect on the 5-C methylation reaction of DNMTs (in words) [1]: nor was it affected

NC(=O)c1cccc(N)c1 [3-aminobenzamide]
effect on the in vitro DNA demethylation activity of the sperm nuclear extract [2]: little effect

O=C(O)c1cc2cccc([N+](=O)[O-])c2[nH]1 [CRT0044876]
effect on the in vitro DNA demethylation activity of the sperm nuclear extract [2]: little effect

[Ca+2].[Cl-].[Cl-] [Ca^2+, CaCl2]
reduction of the extent of DNA methylation ([2]; 1-10 mM Ca2+, fully methylated pMR1-8 plasmid, 37°C, 2 h): 20-50%
effect on the 5-C methylation reaction of DNMTs (in words) [1]: did not require

OO [H2O2]
effect on the enzyme activity of DNMT3B after SAM (in words) ([3]; 1 mM H2O2 added after reaction 2, another 2 h (reaction 3)): led to the switch of the enzyme activity of DNMT3B from methylation to demethylation again

C[S+](CC[C@H](N)C(=O)O)C[C@H]1O[C@@H](n2cnc3c(N)ncnc32)[C@H](O)[C@@H]1O (some centres unmarked) [SAM, S-adenosylmethionine]
C converted back to 5-mC ([3]; 160 μM SAM added after reaction 1, continued 1 h incubation (reaction 2)): more than 60%

O=C1NC(O)CCN1[C@@H]1O[C@H](CO)[C@@H](O)[C@H]1O (some centres unmarked) [tetrahydrouridine]
effect on the in vitro DNA demethylation activity of the sperm nuclear extract [2]: little effect

DNMT1: mouse DNA methyltransferase 1 exogenously expressed in 293T nuclear extract (SEQ ID NO: 5)
5-mC residues on the DNA substrate from which the 5-methyl group was removed [4]: approximately 30%

DNMT3B: mouse DNA methyltransferase 3B, expressed in 293T nuclear extract or recombinant from BPS Bioscience (SEQ ID NO: 9)
5-mC residues on the DNA substrate from which the 5-methyl group was removed [4]: approximately 30%
5-mC on the DNA substrate demethylated at the end of the first reaction [5]: approximately 60%
